PubChem BioAssay (NCI)
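Grown in 96-well plates, cells were treated for 48 hours with each compound at five concentrations. Insufficient inhibition: endpoint recorded as highest concentration tested. GI50 marks 50% less growth. TGI marks complete inhibition of growth.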

Legend:
Assay in all cases: growth of human tumour cells (NCI), 48 h
RPMI-8226 leukemia = tested on: RPMI-8226 leukemia
NCI/ADR-RES ovarian = tested on: NCI/ADR-RES ovarian
EKVX NSCLC = tested on: EKVX NSCLC
786-0 renal = tested on: 786-0 renal
HL-60(TB) leukemia = tested on: HL-60(TB) leukemia
UACC-257 melanoma = tested on: UACC-257 melanoma
SF-295 CNS = tested on: SF-295 CNS
NCI-H522 lung = tested on: NCI-H522 lung
OVCAR-4 ovarian = tested on: OVCAR-4 ovarian
OVCAR-5 ovarian = tested on: OVCAR-5 ovarian

CCN1CCN(c2nc(C)cc(N(CCCNc3ccnc4cc(Cl)ccc34)Cc3ccco3)n2)CC1
GI50 (RPMI-8226 leukemia): 2.31 µM
TGI (RPMI-8226 leukemia): 5.77 µM
GI50 (NCI/ADR-RES ovarian): 4.42 µM
TGI (NCI/ADR-RES ovarian): 19.7 µM
GI50 (EKVX NSCLC): 7.67 µM
TGI (EKVX NSCLC): 25.3 µM
GI50 (786-0 renal): 1.85 µM
TGI (786-0 renal): 4.15 µM
GI50 (HL-60(TB) leukemia): 2.11 µM
TGI (HL-60(TB) leukemia): 5.08 µM
GI50 (UACC-257 melanoma): 1.95 µM
TGI (UACC-257 melanoma): 3.79 µM
GI50 (SF-295 CNS): 1.81 µM
TGI (SF-295 CNS): 3.63 µM
GI50 (NCI-H522 lung): 3.12 µM
TGI (NCI-H522 lung): 12 µM
GI50 (OVCAR-4 ovarian): 3.99 µM
TGI (OVCAR-4 ovarian): 20.7 µM
GI50 (OVCAR-5 ovarian): 7.9 µM
TGI (OVCAR-5 ovarian): 28.4 µM
